Data on two compounds can be found in US4263301A, “β-Phenyl-β-hydroxyethylaminoalkyltheophyllines as inhibitors of biosynthesis of triglycerides” (Shell Oil Company, priority 1980, dated 1981).

The test system of this assay is synthesis of triglycerides (enzyme from pig adipose tissue). The assay can be described thus: Inhibition of triglyceride synthesis by enzyme preparation (homogenate supernatant) from pig adipose tissue, 14C-glycerol-3-phosphate incorporation. It counts as biochemical. To be noted: test compound 1000 micrograms per milliliter, 5% DMSO, incubated eight minutes at 37° C; compared to controls; average of two animals, three replicates each. How it is done: The manner in which they cause this effect has not been established. Their effectiveness for this purpose has been ascertained by the following procedure.
An enzyme was prepared by homogenizing one gram of slices from pig adipose tissue, each slice being approximately 0.3 mm thick, in one-milliliter portions of a liquid medium (Liquid A). The homogenate then was centrifuged (10,000 g×15 minutes), and the supernatant phase (the enzyme) was poured through cheesecloth to remove fat that has risen to the top of the centrifuge tubes.
Liquid A had the following composition (in water):
0.15 M potassium chloride, 1 mM ethylenediaminetetracetic acid, 10 mM Hepes (N-2-hydroxyethylpiperazine-N'-2-ethanesulfonic acid), 1 mM DTT (dithiothreitol), pH=7.0.
A solution of the test compound (Liquid B) was prepared: 10 milligrams of test compound plus 0.5 milliliter dimethylsulfoxide (DMSO) plus 1.83 milliliters of glass-distilled water.
A premix (Liquid C) was freshly prepared before each test, from the following components. […]
0.25 milliliter of enzyme then was added. […] Ten milliliters of a 2:1 (v/v) mixture of toluene and Triton X-100 containing 0.27% New England Nuclear Omnifluor was added, and the radioactivity was determined in a liquid scintillation counter. […]
The percent inhibition by the test compound compared to the controls […] was determined.

For `Cl.Cn1c(=O)c2c(ncn2CCNCC(O)c2cc(C(C)(C)C)c(O)c(C(C)(C)C)c2)n(C)c1=O` (centres unmarked) [7-(2-(2-(3,5-bis-(1,1-dimethylethyl)-4-hydroxyphenyl)-2-hydroxyethylamino)ethyl)-3,7-dihydro-1,3-dimethyl-1H-purine-2,6-dione, hydrochloride], the “Percent Inhibition” value was determined as 95.

Turning to `Cl.Cn1c(=O)c2c(ncn2CCCNCC(O)c2cc(C(C)(C)C)c(O)c(C(C)(C)C)c2)n(C)c1=O` (centres unmarked) [7-(3-(2-(3,5-bis-(1,1-dimethylethyl)-4-hydroxyphenyl)-2-hydroxyethylamino)propyl)-3,7-dihydro-1,3-dimethyl-1H-purine-2,6-dione, hydrochloride], the “Percent Inhibition” value was found to be 93.
